Results published in ChEMBL document CHEMBL5036347, “Design of the naphthyl-diarylpyrimidines as potent non-nucleoside reverse transcriptase inhibitors (NNRTIs) via structure-based extension into the entrance channel” (Eur J Med Chem, 2021).
Converted amounts (≈) assume the structure as drawn.

Key:
[1] = Water solubility of compound at pH 7 at 0.1 to 10 mg by HPLC-UV analysis; assay type: physicochemical; settings: dose 0.1-10 mg
[2] = Water solubility of compound at pH 7.4 at 0.1 to 10 mg by HPLC-UV analysis; assay type: physicochemical; settings: dose 0.1-10 mg
[3] = Water solubility of compound at pH 2 at 0.1 to 10 mg by HPLC-UV analysis; assay type: physicochemical; settings: dose 0.1-10 mg
[4] = system: Human immunodeficiency virus 1; assay: Antiviral activity against HIV1 harboring reverse transcriptase K103N/Y181C double mutant infected in human MT4 cells assessed as protection against virus-induced cytopathic effect incubated for 5 days by MTT assay; assay type: functional, organism-based; settings: Human immunodeficiency virus 1, MT4, 120 h
[5] = system: Human immunodeficiency virus 1; assay: Antiviral activity against HIV1 harboring reverse transcriptase L100I mutant infected in human MT4 cells assessed as protection against virus-induced cytopathic effect incubated for 5 days by MTT assay; assay type: functional, organism-based; settings: Human immunodeficiency virus 1, MT4, 120 h
[6] = system: Human immunodeficiency virus 1; assay: Antiviral activity against HIV1 harboring reverse transcriptase E138K mutant infected in human MT4 cells assessed as protection against virus-induced cytopathic effect incubated for 5 days by MTT assay; assay type: functional, organism-based; settings: Human immunodeficiency virus 1, MT4, 120 h
[7] = system: Human immunodeficiency virus 1; assay: Antiviral activity against HIV1 harboring reverse transcriptase Y188L mutant infected in human MT4 cells assessed as protection against virus-induced cytopathic effect incubated for 5 days by MTT assay; assay type: functional, organism-based; settings: Human immunodeficiency virus 1, MT4, 120 h
[8] = system: Human immunodeficiency virus 1; assay: Antiviral activity against HIV1 harboring reverse transcriptase Y181C mutant infected in human MT4 cells assessed as protection against virus-induced cytopathic effect incubated for 5 days by MTT assay; assay type: functional, organism-based; settings: Human immunodeficiency virus 1, MT4, 120 h
[9] = system: Human immunodeficiency virus 1; assay: Antiviral activity against HIV1 harboring reverse transcriptase K103N mutant infected in human MT4 cells assessed as protection against virus-induced cytopathic effect incubated for 5 days by MTT assay; assay type: functional, organism-based; settings: Human immunodeficiency virus 1, MT4, 120 h
[10] = system: Human immunodeficiency virus 1; assay: Anti-HIV activity against HIV-1 IIIB infected in human MT4 cells assessed as reduction in virus-induced cytopathic effect incubated for 5 days by MTT assay; assay type: functional, organism-based; settings: Human immunodeficiency virus 1, IIIB, MT4, 120 h
[11] = system: Human immunodeficiency virus 1; assay: Antiviral activity against HIV1 harboring reverse transcriptase F227L/V106A mutant infected in human MT4 cells assessed as protection against virus-induced cytopathic effect incubated for 5 days by MTT assay; assay type: functional, organism-based; settings: Human immunodeficiency virus 1, MT4, 120 h

| Compound | solubility [1] [µg/mL] | solubility [2] [µg/mL] | solubility [3] [µg/mL] | further results |
| --- | --- | --- | --- | --- |
| CC(=O)O.COc1cc2cc(C#N)ccc2c(OC)c1Oc1cc(N2CCC(O)C2)nc(Nc2ccc(C#N)cc2)n1 (stereo not given) | < 1 | 3 | < 1 |  |
| CCNc1cc(Oc2c(OC)cc3cc(C#N)ccc3c2OC)nc(Nc2ccc(C#N)cc2)n1.Cc1ccc(S(=O)(=O)O)cc1 | < 1 | 12 | < 1 |  |
| CCNc1cc(Oc2c(OC)cc3cc(C#N)ccc3c2OC)nc(Nc2ccc(C#N)cc2)n1.O=C(O)/C=C\C(=O)O | 1 | 47 | 2 |  |
| COc1cc2cc(C#N)ccc2c(OC)c1Oc1cc(N)nc(Nc2ccc(C#N)cc2)n1.O=C(O)C(F)(F)F | 1 | 3 | < 1 |  |
| COc1cc2cc(C#N)ccc2c(OC)c1Oc1cc(N2CCC(O)C2)nc(Nc2ccc(C#N)cc2)n1.CS(=O)(=O)O (stereo not given) | < 1 | 2 | < 1 |  |
| CCNc1cc(Oc2c(OC)cc3cc(C#N)ccc3c2OC)nc(Nc2ccc(C#N)cc2)n1.O=S(=O)(O)O | 4 | 115 | 9 |  |
| CCNc1cc(Oc2c(OC)cc3cc(C#N)ccc3c2OC)nc(Nc2ccc(C#N)cc2)n1.O=CO | < 1 | 2 | < 1 |  |
| COc1cc2cc(C#N)ccc2c(OC)c1Oc1cc(N2CCC(O)C2)nc(Nc2ccc(C#N)cc2)n1.O=C(O)C(F)(F)F (stereo not given) | < 1 | 1 | < 1 |  |
| CCNc1cc(Oc2c(OC)cc3cc(C#N)ccc3c2OC)nc(Nc2ccc(C#N)cc2)n1.O=C(O)C(F)(F)F | < 1 | < 1 | < 1 |  |
| CC(=O)O.COc1cc2cc(C#N)ccc2c(OC)c1Oc1cc(N)nc(Nc2ccc(C#N)cc2)n1 | < 1 | < 1 | < 1 |  |
| COc1cc2cc(C#N)ccc2c(OC)c1Oc1cc(N)nc(Nc2ccc(C#N)cc2)n1.O=C(O)C(O)C(O)C(=O)O | < 1 | 29 | < 1 |  |
| COc1cc2cc(C#N)ccc2c(OC)c1Oc1cc(N2CCC(O)C2)nc(Nc2ccc(C#N)cc2)n1.O=C(O)C(O)C(O)C(=O)O (stereo not given) | < 1 | 3 | < 1 |  |
| COc1cc2cc(C#N)ccc2c(OC)c1Oc1cc(N2CCC(O)C2)nc(Nc2ccc(C#N)cc2)n1.O=S(=O)(O)O (stereo not given) | < 1 | 2 | < 1 |  |
| CCNc1cc(Oc2c(OC)cc3cc(C#N)ccc3c2OC)nc(Nc2ccc(C#N)cc2)n1.Cl | < 1 | 11 | 9 |  |
| COc1cc2cc(C#N)ccc2c(OC)c1Oc1cc(N)nc(Nc2ccc(C#N)cc2)n1.O=C(O)/C=C\C(=O)O | 7 | 28 | 13 |  |
| Br.CCNc1cc(Oc2c(OC)cc3cc(C#N)ccc3c2OC)nc(Nc2ccc(C#N)cc2)n1 | 1 | 1 | 1 |  |
| COc1cc2cc(C#N)ccc2c(OC)c1Oc1cc(N)nc(Nc2ccc(C#N)cc2)n1.Cl | 1 | 84 | 6 |  |
| Br.COc1cc2cc(C#N)ccc2c(OC)c1Oc1cc(N)nc(Nc2ccc(C#N)cc2)n1 | < 1 | < 1 | < 1 |  |
| CCNc1cc(Oc2c(OC)cc3cc(C#N)ccc3c2OC)nc(Nc2ccc(C#N)cc2)n1.O=C(O)CC(O)(CC(=O)O)C(=O)O | < 1 | 1 | 1 |  |
| COc1cc2cc(C#N)ccc2c(OC)c1Oc1cc(N)nc(Nc2ccc(C#N)cc2)n1.O=CO | < 1 | 2 | 1 |  |

| Compound | solubility [1] [µg/mL] | solubility [2] [µg/mL] | solubility [3] [µg/mL] | further results |
| --- | --- | --- | --- | --- |
| CCNc1cc(Oc2c(OC)cc3cc(C#N)ccc3c2OC)nc(Nc2ccc(C#N)cc2)n1.O=C(O)C(O)C(O)C(=O)O | < 1 | 29 | 1 |  |
| COc1cc2cc(C#N)ccc2c(OC)c1Oc1cc(N2CCC(O)C2)nc(Nc2ccc(C#N)cc2)n1.I (stereo not given) | < 1 | 9 | < 1 |  |
| COc1cc2cc(C#N)ccc2c(OC)c1Oc1cc(N)nc(Nc2ccc(C#N)cc2)n1.Cc1ccc(S(=O)(=O)O)cc1 | < 1 | 2 | 2 |  |
| CCNc1cc(Oc2c(OC)cc3cc(C#N)ccc3c2OC)nc(Nc2ccc(C#N)cc2)n1.I | < 1 | 1 | 1 |  |
| COc1cc2cc(C#N)ccc2c(OC)c1Oc1cc(N2CCC(O)C2)nc(Nc2ccc(C#N)cc2)n1.O=CO (stereo not given) | < 1 | 3 | < 1 |  |
| CCNc1cc(Oc2c(OC)cc3cc(C#N)ccc3c2OC)nc(Nc2ccc(C#N)cc2)n1.CS(=O)(=O)O | < 1 | 1 | < 1 |  |
| COc1cc2cc(C#N)ccc2c(OC)c1Oc1cc(N)nc(Nc2ccc(C#N)cc2)n1.O=C(O)CC(O)(CC(=O)O)C(=O)O | < 1 | 4 | < 1 |  |
| COc1cc2cc(C#N)ccc2c(OC)c1Oc1cc(N2CCC(O)C2)nc(Nc2ccc(C#N)cc2)n1.O=C(O)CC(O)(CC(=O)O)C(=O)O (stereo not given) | < 1 | < 2 | < 1 |  |
| COc1cc2cc(C#N)ccc2c(OC)c1Oc1cc(N)nc(Nc2ccc(C#N)cc2)n1.I | < 1 | 1 | < 1 |  |
| CC(=O)O.CCNc1cc(Oc2c(OC)cc3cc(C#N)ccc3c2OC)nc(Nc2ccc(C#N)cc2)n1 | < 1 | 19 | 1 |  |
| COc1cc2cc(C#N)ccc2c(OC)c1Oc1cc(N2CCC(O)C2)nc(Nc2ccc(C#N)cc2)n1.Cl (stereo not given) | < 1 | 2 | < 1 |  |
| COc1cc2cc(C#N)ccc2c(OC)c1Oc1cc(N)nc(Nc2ccc(C#N)cc2)n1.CS(=O)(=O)O | < 1 | 11 | 4 |  |
| Br.COc1cc2cc(C#N)ccc2c(OC)c1Oc1cc(N2CCC(O)C2)nc(Nc2ccc(C#N)cc2)n1 (stereo not given) | < 1 | < 1 | < 1 |  |
| COc1cc2cc(C#N)ccc2c(OC)c1Oc1cc(N)nc(Nc2ccc(C#N)cc2)n1.O=S(=O)(O)O | < 1 | 72 | < 1 |  |
| COc1cc2cc(C#N)ccc2c(OC)c1Oc1cc(N2CCC(O)C2)nc(Nc2ccc(C#N)cc2)n1.O=C(O)/C=C\C(=O)O (stereo not given) | < 1 | 5 | < 1 |  |
| COc1cc2cc(C#N)ccc2c(OC)c1Oc1cc(N2CCC(O)C2)nc(Nc2ccc(C#N)cc2)n1.Cc1ccc(S(=O)(=O)O)cc1 (stereo not given) | 6 | 13 | 8 |  |
| O=C1Nc2ccc(Cl)cc2[C@@](C#CC2CC2)(C(F)(F)F)O1 [EFAVIRENZ] |  |  |  | EC50 [4]: 220 nM; EC50 [5]: 95 nM; EC50 [6]: 5.3 nM; EC50 [7]: 7.3 nM; EC50 [8]: 7.4 nM; EC50 [9]: 140 nM; EC50 [10]: 4.3 nM; EC50 [11]: 330 nM |
| Cc1cc(C#N)cc(C)c1Oc1nc(Nc2ccc(C#N)cc2)nc(N)c1Br [ETRAVIRINE] | < 1 | 1 (≈ 2.3 µM) | 127 (≈ 292 µM) | EC50 [4]: 52 nM; EC50 [5]: 14 nM; EC50 [6]: 21 nM; EC50 [7]: 30 nM; EC50 [8]: 21 nM; EC50 [9]: 3.8 nM; EC50 [11]: 27 nM |
| Cc1ccnc2c1NC(=O)c1cccnc1N2C1CC1 [NEVIRAPINE] |  |  |  | EC50 [6]: 330 nM; EC50 [8]: 7150 nM; EC50 [9]: 8490 nM; EC50 [10]: 22000 nM |
